From US9572788B2, “Cell permeable inhibitors of anaphase promoting complex” (President and Fellows of Harvard College, priority 2014, dated 2017)
Values belong to the molecule of their own block, whether it stands above or below them.

Experiments:
APC = APC (Xenopus laevis, UniProt A0A1L8ESF3); assay: Cyclin B1-luciferase reporter degradation (luciferase assay) in mitotic Xenopus egg extract; assay type: biochemical; settings: mitotic Xenopus extract
Xenopus APC = assay: ^3H-TAME binding assay in interphase extract; settings: 200 nM ^3H-TAME
Source text: The beads were washed quickly twice with XB high salt and twice with XB.

APC/C-Cdc20 = APC/C-Cdc20 (Xenopus laevis, UniProt Q6DFD4); assay: Kinetics of APC/C-Cdc20-dependent ubiquitination of cyclin B1 N-terminal fragment; assay type: biochemical; settings: methylated ubiquitin
Method: Measurements of kinetics of ubiquitination were performed using an N-terminal fragment of cyclin B1 and APC/C isolated from Xenopus extract, exactly as previously described (Zeng, X. & King, R. W. Nat Chem Biol 8, 383-392, (2012)).
Kinetic analysis of APC^Cdc20 reactions. Endogenous APC^Cdc20 was isolated from Xenopus extract as described above. The ubiquitination mixture was prepared as described in Cdc20 ubiquitination assay with the exception that 60 μM methylated ubiquitin was used in place of WT ubiquitin. CycB-NT was diluted into the mixture to final concentrations of 1 μM, 500 nM, 250 nM, 125 nM and 62.5 nM prior to the reaction. For each reaction, 2.5 μl beads were mixed with 20 μl ubiquitination mixture and left on a shaker at RT for 30 seconds. The reaction was stopped by adding 7 μl hot 4×LDS sample buffer (Invitrogen NP0007)+[…]. Band intensity of the mono-, di-, and tri-ubiquitinated cycB-NT was quantitated with Image J and fitted to a hyperbolic equation by nonlinear regression.

RPE1-H2B-GFP cells = assay: Fluorescence live cell imaging with survival (Cox) analysis, RPE1; assay type: cell-based, human; settings: proTAME 6 μM; for % rate of mitotic exit: relative to DMSO control, Cox model, apcin/apcin-M 25 μM; for Median mitotic duration: apcin or apcin-M 25 μM
Method: RPE1-H2B-GFP or U2OS-H2B-GFP cells were plated in 24-well glass-bottom plates 18-24 hours prior to siRNA transfection using RNAiMax (Invitrogen). After treatment with compound(s), DIC and GFP images were captured at 6-minute intervals for 45 hours. Movies were manually analyzed using Nikon Elements software or Image J.
RPE1-H2B-GFP or U2OS-H2B-GFP cells were plated in 24-well glass-bottom plates (Greiner BioOne, 662892) 18-24 hours prior to siRNA transfection using RNAiMax (Invitrogen). Plates were inserted into a covered chamber supplied with humidified 5% CO2 and mounted onto a motorized microscope stage (Prior Scientific). DIC and FITC images were captured at 6 minute intervals for 45 hours using a Nikon Ti inverted fluorescence microscope fitted with a 37° C. enclosed incubation chamber and using a 20× Plan Apo 0.75 NA objective lens. A Hamamatsu ORCA cooled CCD camera collected the images with 2×2 binning using Nikon Elements software (version 3.0). Movies were manually analyzed using Nikon Elements software or ImageJ. Mitotic duration was defined as the time from nuclear envelope breakdown until anaphase, in the case of normal mitosis, or until exit from prolonged mitosis as indicated by cytoplasmic blebbing accompanied by changes in chromatin as detected by H2B-GFP.
In order to detect differences in mitotic duration among cells in the live-cell imaging screen, a stratified Cox proportional hazards model (Cox, D. R. Regression models and life tables. J Royal Statistics Soc B34, 187-220, (1972)) was fit to censored mitotic duration times (where cells that are not observed exiting mitosis or dying in mitosis are censored at the last known time in mitosis). The Cox proportional hazards model is a semiparameteric approach to modeling time-to-event data, in which covariates are assumed to have constant proportional effects over time relative to a baseline hazard function that can take any form. In this case, stratification on “person” (the individual who analyzed the movie) and “date” (the date the assay was run) allow the baseline hazard function to differ across experimental blocks, but assume a fixed effect of treatment across experimental blocks. The model is thus: hi(t|Z=j)=hj(t)exp(β1×apcini+β2×apcinMi+β3×proTAMEi+β4×proTAMEi:apcinMi+β5×proTAMEi:apcini), j=1 . . . 4 where hi(t) is the hazard function of cell i at time t, hj(t) is the baseline hazard for strata j (with 4 levels, one for each person and date combination), apcini, proTAMEi, and apcinMi are indicator variables for presence or absence of the compounds apcin, proTAME, and apcin-M, respectively in cell i, proTAMEi:apcini is an indicator variable that is 1 if both proTAME and apcin are present in cell i, and 0 otherwise, and proTAMEi:apcinMi is a similar indicator variable for proTAME+apcin-M. In this model, […] represent the effects of apcin, apcin-M, and proTAME alone, while β4 and β5 represent the additional non-additive effect of the compounds beyond what is predicted from the combination of effects of the two compounds alone. This model was fit separately to cells treated with control siRNA or Mad2 siRNA. All statistical analysis was carried out in R 3.0.0 using the functions available as part of the survival package.
In this model, the β coefficients represent the log hazard ratios for exiting mitosis between treated and untreated cells. However, for ease of interpretation the β coefficients are exponentiated to convert them to normal hazard ratios, and then multiplied by 100 to convert to percentages relative to DMSO. These hazard ratios, which are referred to as mitotic exit rate, represent the relative probability that a treated cell in mitosis at time t will exit mitosis in the next time interval compared to an untreated cell.
For ease of interpretation, the treatment effects are presented relative to DMSO for all individual compounds and compound combinations. […]

U2OS-H2B-GFP cells = assay: Fluorescence live cell imaging with survival (Cox) analysis, U2OS; assay type: cell-based, human; settings: proTAME 12 μM
Method: Mitotic duration and cell fate were determined by manual inspection of the movies and plotted as Kaplan-Meier curves. The hatch marks on the Kaplan-Meier curved indicate mitotic duration endpoints of censored cells. Includes the combined results of five independent experiments. […] Pairwise comparison between proTAME and proTAME+apcin-M tested using a Cox proportional hazards model stratified by date, using data from only the experimental blocks in which both proTAME and proTAME+apcin were tested.
Movies were manually analyzed using Nikon Elements software or Image J.
Plates were inserted into a covered chamber supplied with humidified 5% CO2 and mounted onto a motorized microscope stage (Prior Scientific). […] A Hamamatsu ORCA cooled CCD camera collected the images with 2×2 binning using Nikon Elements software (version 3.0). Movies were manually analyzed using Nikon Elements software or ImageJ. Mitotic duration was defined as the time from nuclear envelope breakdown until anaphase, in the case of normal mitosis, or until exit from prolonged mitosis as indicated by cytoplasmic blebbing accompanied by changes in chromatin as detected by H2B-GFP.
The Cox proportional hazards model is a semiparameteric approach to modeling time-to-event data, in which covariates are assumed to have constant proportional effects over time relative to a baseline hazard function that can take any form. In this case, stratification on “person” (the individual who analyzed the movie) and “date” (the date the assay was run) allow the baseline hazard function to differ across experimental blocks, but assume a fixed effect of treatment across experimental blocks. The model is thus: hi(t|Z=j)=hj(t)exp(β1×apcini+β2×apcinMi+β3×proTAMEi+β4×proTAMEi:apcinMi+β5×proTAMEi:apcini), j=1 . . . […] This model was fit separately to cells treated with control siRNA or Mad2 siRNA. All statistical analysis was carried out in R 3.0.0 using the functions available as part of the survival package.

APC/C = assay: ^35S-labeled substrate degradation in mitotic Xenopus egg extract; assay type: biochemical; settings: 200 μM
Method: Mitotic extracts were pretreated with DMSO or compounds for 10 min. Substrates were expressed and ^35S-methionine labeled using the TNT system from Promega and added to the extract at 10% final volume.
Substrates consisted of human full length cyclin B1, cyclin A2, securin, Nek2A, or an N-terminal fragment of human cyclin B1 (residues 1-88). Each substrate was amplified with primers by PCR to allow T7-dependent transcription of the PCR product. Substrates were expressed and labeled with ^35S-methionine (Perkin Elmer NEG709A500UC) using the TNT system from Promega. […] The in vitro-translation reaction was then added to the mitotic Xenopus extract at 10% final volume. Extracts were then incubated at 24° C., with shaking at 1250 rpm, with samples taken at indicated times. Reactions were quenched with SDS sample buffer and processed for SDS-PAGE and phosphoimaging (Bio-Rad PMI) and quantification was performed using Quantity One software (Bio-Rad).
A 35S-labeled cyclin B1 protein was expressed in reticulocyte lysate, and a 10% volume of this material was added to mitotically arrested Xenopus egg extract, in the presence of DMSO or different concentrations of inhibitors. Aliquots were taken at 0 and 20 minutes, and samples separated by SDS-PAGE and radioactivity measured by quantitative phosphorimager analysis.

Chain of APC (A0A1L8ESF3 entry or part of it): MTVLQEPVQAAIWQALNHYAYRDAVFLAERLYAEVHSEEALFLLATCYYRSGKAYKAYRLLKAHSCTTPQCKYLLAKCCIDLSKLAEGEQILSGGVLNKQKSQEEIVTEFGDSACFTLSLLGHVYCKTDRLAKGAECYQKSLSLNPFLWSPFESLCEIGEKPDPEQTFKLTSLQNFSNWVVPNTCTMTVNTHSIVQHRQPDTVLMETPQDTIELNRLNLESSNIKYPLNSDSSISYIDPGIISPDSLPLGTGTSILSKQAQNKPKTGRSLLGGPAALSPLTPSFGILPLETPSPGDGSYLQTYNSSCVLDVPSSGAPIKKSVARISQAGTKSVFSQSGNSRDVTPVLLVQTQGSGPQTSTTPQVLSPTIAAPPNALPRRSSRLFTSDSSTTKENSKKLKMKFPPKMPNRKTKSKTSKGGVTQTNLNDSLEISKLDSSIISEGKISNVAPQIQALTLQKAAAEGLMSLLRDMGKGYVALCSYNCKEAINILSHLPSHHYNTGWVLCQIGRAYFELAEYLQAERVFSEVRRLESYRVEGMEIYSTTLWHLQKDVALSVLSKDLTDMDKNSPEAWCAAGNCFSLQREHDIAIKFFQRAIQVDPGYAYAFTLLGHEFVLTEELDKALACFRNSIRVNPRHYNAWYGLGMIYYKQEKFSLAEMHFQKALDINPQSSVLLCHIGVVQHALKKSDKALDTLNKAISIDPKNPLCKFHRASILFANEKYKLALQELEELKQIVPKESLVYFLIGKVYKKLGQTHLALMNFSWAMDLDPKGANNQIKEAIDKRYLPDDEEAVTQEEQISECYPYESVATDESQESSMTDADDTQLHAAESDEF
Chain of APC (Q6DFD4 entry or part of it, further chain): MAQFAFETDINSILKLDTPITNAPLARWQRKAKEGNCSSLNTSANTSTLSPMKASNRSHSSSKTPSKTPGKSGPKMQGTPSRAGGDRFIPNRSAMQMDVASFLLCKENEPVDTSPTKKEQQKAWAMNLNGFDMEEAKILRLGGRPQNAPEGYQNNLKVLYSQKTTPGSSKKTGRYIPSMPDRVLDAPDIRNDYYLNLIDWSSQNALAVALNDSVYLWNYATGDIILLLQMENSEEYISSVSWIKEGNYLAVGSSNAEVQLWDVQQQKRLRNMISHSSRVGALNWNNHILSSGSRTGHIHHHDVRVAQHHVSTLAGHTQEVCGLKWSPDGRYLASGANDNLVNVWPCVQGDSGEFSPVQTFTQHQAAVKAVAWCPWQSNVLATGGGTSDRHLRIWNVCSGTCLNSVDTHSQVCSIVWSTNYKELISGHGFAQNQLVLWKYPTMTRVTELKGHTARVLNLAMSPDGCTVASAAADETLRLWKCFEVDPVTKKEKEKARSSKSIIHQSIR

Inhibition of cyclin B-luciferase proteolysis (APC): showed only low activity
Competition with ^3H-TAME for binding to Xenopus APC (Xenopus APC): did not
SMILES: COC(=O)[C@H](CCCNC(=N)N)NC(C)=O [AAME, Acetyl-L-Arginine Methyl Ester]

SMILES: Cc1ncc([N+](=O)[O-])n1CCOC(=O)NC(Nc1ncccn1)C(Cl)(Cl)Cl (stereo not shown) [apcin]
Effect on Km and kcat of APC-dependent ubiquitination (APC/C-Cdc20): caused a significant increase (p=0.0039) in the Km (Ki=23 μM) of the reaction but no reduction in kcat
% rate of mitotic exit (RPE1-H2B-GFP cells; Mad2 siRNA): 57.38%
Median mitotic duration (RPE1-H2B-GFP cells; Table 3, control siRNA): 24
Median mitotic duration (RPE1-H2B-GFP cells; Table 3, mad2 siRNA): 19
% rate of mitotic exit (RPE1-H2B-GFP cells; control siRNA): 82.87%
Median mitotic duration (U2OS-H2B-GFP cells; Table 7, apcin or apcin-M 25 μM): 24
% rate of mitotic exit (U2OS-H2B-GFP cells; relative to DMSO control, Cox model, apcin/apcin-M 25 μM): 109.64%

SMILES: NCCCOC(=O)NC(Nc1ncccn1)C(Cl)(Cl)Cl (stereo not shown) [apcin-A]
Activity on proteolysis of N-terminal ^35S-labeled fragment of cyclin B1 relative to apcin (APC/C): reduced activity
